This is an account of results in patent US7179800B2 (priority 2002, dated 2007).

Like-named read-outs stand apart in the source and are kept apart here.

For one test, the target named is T1, CB2 receptor (Homo sapiens, UniProt P34972).
T1 construct: expressed in transfected cells; host or cells: CHO cells, G418-selected transfected line
In words: CB2 binding procedure: displacement of [3H]CP-55,940 from membranes of transfected CHO cells. The conditions noted are these: for Ki: [3H]CP-55,940, transfected CHO cell membranes; for CB1/CB2 (ratio of Ki): CB1 Ki divided by CB2 Ki. As to the method: Membranes for CB2 binding were obtained from CHO cells. The transfected cell line was maintained in Dublecco's Modified Eagle Medium (Gibco BRL, Grand Island, N.Y.) with 10% fetal clone II (HyClone Laboratories, Inc., Logan, Utah) plus 0.3 to 0.5 mg/ml G418 (to maintain selective pressure) under 5% CO2 at 37% C. Cells were harvested with 1 mM EDTA in phosphate-buffered saline and were centrifuged at 1000×g for 5 min at 4% C. The supernatant was saved and the P1 pellet was resuspended in centrifugation buffer. Homogenization and centrifugation were repeated twice and the combined supernatant fractions were centrifuged at 40,000×g for 30 min at 4% C. The P2 pellet was resuspended in centrifugation buffer 2 (Tris HCl, 50 mM; EDTA, 1 mM; and MgCl2, 3 mM, pH 7.4) to a protein concentration of approximately 2 mg/ml. Protein concentrations were determined by the method of Bradford (1976) using Bio-Rad Protein Assay (Bio-Rad, Richmond, Calif.) and BSA standards (fatty acid free, Sigma Chemical Co., St. Louis, Mo.). The membrane preparation was divided into amounts convenient for binding assays and frozen rapidly in dry ice and stored at −80% C.
Binding was initiated by the addition of 50 μg of quickly thawed P2 membranes to test tubes containing [^3H]CP-55,940 (final reaction concentration 0.5 nM), an appropriate concentration of unlabeled CP-55,940 or test drug, and sufficient quantity of assay buffer (50 mM Tris-HCl, 1 mM EDTA, 3 mM MgCl2, 5 mg/ml bovine serum albumin, pH 7.4) to bring the total incubation volume to 0.5 ml. Concentration of [^3H]CP-55,940 in saturation studies ranged from 50 to 10,000 pM. Nonspecific binding was determined by the addition of 1 μM unlabeled CP-55,940. CP-55,940 and all cannabinoid analogs were prepared by suspension in assay buffer from a 1 mg/ml ethanolic stock without evaporation of the ethanol (final concentration of no more than 0.4%). In competition studies, analog concentrations ranged from 0.1 nM to 10 μM. After incubation at 30% C for 1 hr, binding was terminated by the addition of 2 ml of ice-cold wash buffer (50 mM Tris-HCl and 1 mg/ml BSA) and vacuum filtration through pre-treated filters in a 12-well sampling manifold (Millipore, Bedford, Mass.). Reaction vessels were washed once with 2 ml of ice-cold wash buffer. Filters were placed into 7-ml plastic scintillation vials (RPI Corp., Mount Prospect, Ill.) with 4 ml of Budget-Solve (RPI Corp.). After shaking for 30 min, the radioactivity present was determined by liquid scintillation spectrometry. Three reaction vessels were used for each drug concentration in each assay. The results represent the combined data of three independent experiments. All assays were performed in siliconized test tubes, which were prepared by air drying (12 hr) inverted borosilicate tubes after two rinses with a 0.1% solution of AquaSil (Pierce, Rockford, Ill.). The GF/C glass-fiber filters (2.4 cm, Baxter, McGaw Park, Ill.) were pre-treated in a 0.1% solution of pH 7.4 polyethylenimine (Sigma Chemical Co.) for at least 6 hr.
(§1) In addition, multiple linear regression was used to calculate the overall degree of relationship between CB1 binding affinity and potency in the mouse measures for all active cannabinoids. […] Ki values for CB1 and CB2 binding were obtained from Scatchard displacement analysis as determined via EBDA program of the KELL software package (Biosoft, Milltown, N.J.).

For the next test, the target named is CB1 receptor (Rattus norvegicus, UniProt P20272). Description: CB1 binding procedure: displacement of [3H]CP 55,940 from rat whole-brain P2 membranes. The arrangement: whole brain was homogenized and centrifuged; from tissue; host or cells: rat whole brain, P2 membrane fraction. The conditions noted are these: for Ki: [3H]CP 55,940, rat brain membranes. As to the method: (§2) Male ICR mice (25–32 g), obtained from Harlan (Dublin, Va.), were housed in groups of five. All animals were kept in a temperature-controlled (20–22° C.) environment with a 12-hour light-dark cycle (lights on at 7 a.m.). Separate mice were used for testing each drug dose in the in vivo behavioral procedures. Brain tissue for binding studies was obtained from male Sprague-Dawley rats (150–200 g) purchased from Harlan Laboratories (Dublin, Va.).
The methods used for tissue preparation and binding have been described previously (Compton et al., 1993) and are similar to those described by Devane et al. (1988). All assays, as described briefly below, were performed in triplicate, and the results represent the combined data from three to six individual experiments.
Following decapitation and rapid removal of the brain, whole brain was homogenized and centrifuged. The resulting pellet was termed P1. The supernatant was saved and combined with the two subsequent supernatants obtained from washing of the P1 pellet. The combined supernatant fractions were centrifuged, resulting in the P2 pellet. After further incubation and centrifuging, this pellet was resuspended in assay buffer to a protein concentration of approximately 2 mg/ml. The membrane preparation was quickly frozen in a bath solution of dry ice and 2-methylbutane (Sigma Chemical Co., St. Louis, Mo.), then stored at −80° C. for no more than 2 weeks. Prior to performing a binding assay an aliquot of frozen membrane was rapidly thawed and protein values determined by the method of Bradford (1976).
Binding was initiated by the addition of 150 μg of P2 membrane to test tubes containing 1 nM of [^3H] CP 55,940 (79 Ci/mmol) and a sufficient quantity of buffer to bring the total incubation volume to 1 ml. Nonspecific binding was determined by the addition of 1 μM unlabeled CP 55,940. Following incubation at 30° C. for 1 hr, binding was terminated by addition of ice cold buffer and vacuum filtration through pretreated filters in a 12-well sampling manifold (Millipore, Bedford, Mass.). After washing, filters were placed into plastic scintillation vials (Packard, Downer Grove, Ill.) and shaken. The quantity of radioactivity present was determined by liquid scintillation spectrometry.
as §1

Test [1] concerns Male ICR mice. Description: Tail-flick antinociception (TF, % MPE) in mice. It is filed as in vivo, mouse. To be noted: for ED50: Mus musculus, iv; for ED50 / TF percent effect (% MPE) at the highest dose: mice, i.v.; for TF percent effect (% MPE) at the highest dose: 30 mg/kg. As to the method:
as §2
(§3) Measurement of spontaneous activity in mice occurred in standard activity chambers interfaced with a Digiscan Animal Activity Monitor (Omnitech Electronics, Inc., Columbus, Ohio). A standard tail-flick apparatus and a digital thermometer (Fisher Scientific, Pittsburgh, Pa.) were used to measure antinociception and rectal temperature, respectively
(§4) Resorcinols were synthesized in our labs (Organix, Inc., Woburn, Mass.) according to the procedure specified below and were suspended in a vehicle of absolute ethanol, Emulphor-620 (Rhone-Poulenc, Inc., Princeton, N.J.), and saline in a ratio of 1:1:18. Drugs were administered to the mice intravenously (i.v.) in the tail vein at a volume of 0.1 ml/10 g.
(§5) Prior to testing in the behavioral procedures, mice were acclimated to the experimental setting (ambient temperature 22–24° C.) overnight. Pre-injection control values were determined for rectal temperature and tail-flick latency (in sec). […] Tail-flick latency was measured at 20 min post-injection. Maximum latency of 10 sec was used. Antinociception was calculated as percent of maximum possible effect {% MPE=[(test−control latency)/(10-control)]×100}. Control latencies typically ranged from 1.5 to 4.0 sec. At 30 min post-injection, rectal temperature was measured This value was expressed as the difference between control temperature (before injection) and temperatures following drug administration (° C.). Different mice (n=5–6 per dose) were tested for each dose of each compound. Each mouse was tested in each of the 3 procedures.
(§6) Based on data obtained from numerous previous studies with cannabinoids, maximal cannabinoid effects in each procedure were estimated as follows: 90% inhibition of spontaneous activity, 100% MPE in the tail flick procedure, and −6° C. change in rectal temperature. ED50's were defined as the dose at which half maximal effect occurred. For drugs that produced one or more cannabinoid effect, ED50's were calculated separately using least-squares linear regression on the linear part of the dose-effect curve for each measure in the mouse tetrad, plotted against log10 transformation of the dose. For the purposes of potency comparison, potencies were expressed as μmol/kg.

Test [2] relates to Male ICR mice. Description: Change in rectal temperature (RT) in mice. To be noted: mice, i.v.; for ED50: Mus musculus, iv; for RT effect at the highest dose (change in rectal temperature): 30 mg/kg. The format is in vivo, mouse. As to the method: as §2, §3, §4, §5, §6
The test system of test [3] is Male ICR mice. In words: Suppression of spontaneous activity (SA) in mice. To be noted: for ED50: Mus musculus, iv; for ED50 / SA percent effect at the highest dose: mice, i.v.; for SA percent effect at the highest dose: 30 mg/kg, % inhibition of activity of vehicle group. The format is in vivo, mouse. On the procedure:
as §2, §3, §4, §5, §6

Setting [4] is: means ± SEM, read-out: Ki (nM) CB2.
The mark [5] stands for this setting: means ± SEM, read-out: Ki (nM) CB1.
Setting [6] is: 95% confidence limits in parentheses, read-out: ED50 TF (antinociceptive effect in tail flick assay).
The mark [7] stands for this setting: 95% confidence limits in parentheses, read-out: ED50 RT (rectal temperature).
Setting [8] is: 95% confidence limits in parentheses, read-out: ED50 SA (suppression of spontaneous activity).
Where [9] appears, read: relative to the comparator analog.

T1 sequence (P34972 whole entry): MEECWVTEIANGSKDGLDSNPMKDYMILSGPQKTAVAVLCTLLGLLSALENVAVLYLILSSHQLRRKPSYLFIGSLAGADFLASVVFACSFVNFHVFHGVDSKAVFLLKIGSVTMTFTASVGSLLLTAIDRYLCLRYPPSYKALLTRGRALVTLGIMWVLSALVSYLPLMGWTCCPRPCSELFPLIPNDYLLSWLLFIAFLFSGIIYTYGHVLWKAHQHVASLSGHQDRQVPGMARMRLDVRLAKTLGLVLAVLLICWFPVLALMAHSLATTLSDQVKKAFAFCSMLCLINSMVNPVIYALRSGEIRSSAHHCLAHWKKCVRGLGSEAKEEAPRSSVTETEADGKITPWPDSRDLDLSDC
CB1 receptor, sequence (P20272 whole entry): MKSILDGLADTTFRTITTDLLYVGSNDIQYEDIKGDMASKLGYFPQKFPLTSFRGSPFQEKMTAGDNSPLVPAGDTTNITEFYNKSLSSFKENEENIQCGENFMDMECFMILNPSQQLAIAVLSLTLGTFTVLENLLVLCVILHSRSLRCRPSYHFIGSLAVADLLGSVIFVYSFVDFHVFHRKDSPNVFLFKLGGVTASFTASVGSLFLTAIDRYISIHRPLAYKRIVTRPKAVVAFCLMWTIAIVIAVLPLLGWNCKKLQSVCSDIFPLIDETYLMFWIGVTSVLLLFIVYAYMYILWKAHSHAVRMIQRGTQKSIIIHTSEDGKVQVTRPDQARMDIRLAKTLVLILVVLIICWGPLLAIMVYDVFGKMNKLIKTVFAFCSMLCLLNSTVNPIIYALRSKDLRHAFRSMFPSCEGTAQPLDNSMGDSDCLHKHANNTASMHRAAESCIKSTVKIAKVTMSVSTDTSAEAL

As for `CCCCCCC(C)(C)c1cc(O)c(C2CCCC2)c(O)c1` [O-1424, 2-(Cyclopentyl)-dimethylheptyl-resorcinol], the Ki (as a rule, a dissociation constant, usually derived from enzyme kinetics or from competition with a known ligand) at CB2 receptor (setting [4]) turned out to be 7 ± 0.4 nM; on CB1 receptor (setting [5]), 95 ± 6 nM. The median effective dose (ED50) (commonly the dose that gives a 50% effect, or the effect in half of the subjects) in the test with Male ICR mice [1] (Table 6, read-out: T.F. ED50) amounted to 4.48 mg/kg; in the test on Male ICR mice [1] (setting [6]), 13 µmol/kg; with Male ICR mice [2] (Table 6, read-out: R.T. ED50) it was 4.24 mg/kg; with Male ICR mice [2] (setting [7]), 13 µmol/kg; in the test with Male ICR mice [3] (Table 6, read-out: S.A ED50), 8.29 mg/kg; in the test with Male ICR mice [3] (setting [8]), 27 µmol/kg.
Regarding `CCCC(C)(C)c1ccc(-c2cc(C)ccc2C(C)C)c(O)c1` [O-1532], on CB2 receptor, the “CB1/CB2 (ratio of Ki)” value stood at 8. Moreover, the inhibition constant (Ki) at CB2 receptor (setting [4]) was determined as 113 ± 21 nM; on CB1 receptor (setting [5]), 876 ± 18 nM. The “TF percent effect (% MPE) at the highest dose” value in the test on Male ICR mice [1] was 7%. The “RT effect at the highest dose (change in rectal temperature)” value in the test on Male ICR mice [2] is −0.4 °C. Also, in the test on Male ICR mice [3], the “SA percent effect at the highest dose” value came to 32%.
Turning to `CCCCCCC(C)(C)c1ccc(-c2cc(CO)ccc2C(C)C)c(O)c1` [O-1601, 3-1′,1′-Dimethylheptyl-6-(2-isopropyl-5-hydroxy-methylphenyl)-phenol], the “CB1/CB2 (ratio of Ki)” value at CB2 receptor stood at 2. In addition, the values for the inhibitory constant (Ki) on CB2 receptor (setting [4]) and on CB1 receptor (setting [5]) were 3 ± 0.4 nM and 5 ± 0.6 nM, respectively. Also, the ED50 in the test on Male ICR mice [1] (setting [6]) is 1.1 µmol/kg; in the test with Male ICR mice [2] (setting [7]) it was 1.6 µmol/kg; in the test on Male ICR mice [3] (setting [8]), 1.1 µmol/kg.
Take `CCCCCCC(C)(C)c1cc(O)c(C2CCC(c3ccccc3)CC2)c(O)c1` (stereo not drawn) [O-1663, 2-(4-Phenylcyclohexyl)-5-(1′,1′-dimethylheptyl)-resorcinol]: the “CB1/CB2 (ratio of Ki)” value on CB2 receptor is on record as 16. Also, the Ki at CB2 receptor (Ki (nM) CB2, means ± SEM) was determined as 9 ± 2 nM; on CB1 receptor (Ki (nM) CB1, means ± SEM), 144 ± 22 nM. At CB2 receptor (setting [9]), the “fold decrease in CB2 affinity” value stood at 2 fold. Besides, on CB1 receptor (setting [9]), the “fold decrease in CB1 affinity” value is listed as 3 fold. The “T.F. % effect at dose” value with Male ICR mice [1] (Table 6, @ 30 (mg/kg)) came out at 7% @ 30. Further, the “TF percent effect (% MPE) at the highest dose” value in the test with Male ICR mice [1] is listed as 7%(30). Also, the “RT effect at the highest dose (change in rectal temperature)” value in the test on Male ICR mice [2] was −2.2(30) °C. The “S.A % effect at dose” value in the test with Male ICR mice [3] (Table 6, @ 30 (mg/kg)) worked out at 32% @ 30. The “SA percent effect at the highest dose” value in the test on Male ICR mice [3] was 32%(30).
